According to the supplement of paper PMC10307832:

Assays:
Assay in all cases: relative viability (nuclei count vs DMSO), 5 days (fraction); higher = more cells survive
[1] = compound: COc1ccc(-c2ccc3c(N4CCOC[C@@H]4C)nc(N4CCOC[C@@H]4C)nc3n2)cc1CO [AZD8055] + CC(=O)Nc1cccc(-n2c(=O)n(C3CC3)c(=O)c3c(Nc4ccc(I)cc4F)n(C)c(=O)c(C)c32)c1 [Trametinib] (partner 0.02 µM)
Method in brief: (§1)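 Each reported value is a median over duplicate plates. It expresses relative viability: treated-well nuclei count divided by vehicle-well nuclei count. Lung cancer cell lines in 1536-well plates were dosed by pin tool a day after seeding, alone with one drug or with a fixed anchor-drug dose plus five library-drug doses (not always all listed) in √10 steps, and nuclei were counted after 5 days.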

[2] = compound: COc1ccc(-c2ccc3c(N4CCOC[C@@H]4C)nc(N4CCOC[C@@H]4C)nc3n2)cc1CO [AZD8055] + CC1(C)CCC(c2ccc(Cl)cc2)=C(CN2CCN(c3ccc(C(=O)NS(=O)(=O)c4ccc(N[C@H](CCN5CCOCC5)CSc5ccccc5)c(S(=O)(=O)C(F)(F)F)c4)cc3)CC2)C1 [Navitoclax] (partner 0.5 µM)
Method in brief: as §1

[3] = compound: COc1ccc(-c2ccc3c(N4CCOC[C@@H]4C)nc(N4CCOC[C@@H]4C)nc3n2)cc1CO [AZD8055] + N=C(N)NC(=N)NCCc1ccccc1 [Phenformin] (partner 250 µM)
Method in brief: as §1

[4] = compound: COc1ccc(-c2ccc3c(N4CCOC[C@@H]4C)nc(N4CCOC[C@@H]4C)nc3n2)cc1CO [AZD8055] + Nc1nc2[nH]cc(CCc3ccc(C(=O)N[C@@H](CCC(=O)O)C(=O)O)cc3)c2c(=O)[nH]1 [Pemetrexed] (partner 0.2 µM)
Method in brief: as §1

Cell Line	relative viability ([1]; first compound 0.01 µM)	relative viability ([1]; first compound 0.03162 µM)	relative viability ([1]; first compound 0.1 µM)	relative viability ([1]; first compound 0.3162 µM)	relative viability ([1]; first compound 1 µM)	relative viability ([2]; first compound 0.01 µM)	relative viability ([2]; first compound 0.03162 µM)	relative viability ([2]; first compound 0.1 µM)	relative viability ([2]; first compound 0.3162 µM)	relative viability ([2]; first compound 1 µM)	relative viability ([3]; first compound 0.01 µM)	relative viability ([3]; first compound 0.03162 µM)	relative viability ([3]; first compound 0.1 µM)	relative viability ([3]; first compound 0.3162 µM)	relative viability ([3]; first compound 1 µM)	relative viability ([4]; first compound 0.01 µM)	relative viability ([4]; first compound 0.03162 µM)	relative viability ([4]; first compound 0.1 µM)	relative viability ([4]; first compound 0.3162 µM)	relative viability ([4]; first compound 1 µM)
NCI-H1944	0.411	0.378	0.292	0.228	0.191	1.05	0.929	0.851	0.457	0.316	0.193	0.2	0.187	0.148	0.129	0.57	0.568	0.454	0.286	0.294
HCC-78	0.819	0.596	0.597	0.409	0.349	0.817	0.574	0.339	0.238	0.198	0.684	0.64	0.437	0.386	0.35	0.967	0.865	0.855	0.88	0.896
NCI-H2405	0.555	0.494	0.43	0.282	0.27	0.939	0.93	0.708	0.392	0.291	0.399	0.368	0.341	0.302	0.275	1.06	0.987	0.803	0.34	0.342
SK-LU-1	0.579	0.447	0.358	0.284	0.3	1.16	0.788	1.23	0.526	0.332	0.526	0.436	0.288	0.247	0.226	1.09	0.874	0.69	0.444	0.371
EMC-BAC-2	0.87	0.818	0.733	0.363	0.434	1.22	1.13	1.05	0.446	0.37	0.5	0.42	0.36	0.283	0.258	0.501	0.465	0.474	0.396	0.316
NCI-H1650	0.724	0.544	0.502	0.394	0.261	1.01	1.15	1.07	0.519	0.502	0.534	0.518	0.383	0.288	0.266	0.403	0.463	0.389	0.39	0.29
NCI-H596	0.704	0.676	0.577	0.411	0.404	0.975	0.67	0.369	0.288	0.241	0.777	0.685	0.608	0.407	0.375	0.452	0.456	0.409	0.402	0.443
LCLC-97TM1	0.194	0.164	0.124	0.138	0.123	0.45	0.225	0.214	0.13	0.144	0.477	0.182	0.178	0.121	0.187	0.18	0.158	0.168	0.168	0.132
H3255	0.687	0.588	0.455	0.306	0.322	0.54	0.443	0.324	0.176	0.172	0.349	0.397	0.332	0.279	0.305	0.636	0.562	0.487	0.443	0.364
LXF-289	0.75	0.606	0.627	0.392	0.333	0.979	0.995	0.831	0.694	0.529	0.539	0.534	0.508	0.458	0.385	1.11	0.996	0.935	0.765	0.651
UMC-11	0.77	0.489	0.453	0.319	0.253	0.295	0.277	0.248	0.173	0.134	0.353	0.311	0.311	0.264	0.213	0.76	0.629	0.525	0.302	0.264
LC-2-ad	0.989	0.917	0.828	0.907	0.715	0.349	0.309	0.163	0.185	0.154	0.549	0.564	0.538	0.336	0.362	0.281	0.277	0.307	0.289	0.278
SK-MES-1	0.462	0.543	0.354	0.313	0.303	1.05	1.25	0.818	0.404	0.342	0.658	0.645	0.608	0.311	0.216	0.947	0.892	0.833	0.408	0.326
A-427	0.746	0.577	0.488	0.351	0.334	0.987	0.837	0.598	0.376	0.315	0.459	0.381	0.321	0.25	0.291	1.04	0.895	0.835	0.555	0.587
NCI-H322M	0.522	0.467	0.486	0.481	0.398	1.17	1.09	0.845	0.488	0.546	0.726	0.704	0.662	0.501	0.502	0.655	0.689	0.622	0.609	0.483
HCC-366	0.35	0.217	0.166	0.0931	0.0678	1.15	0.911	0.694	0.418	0.132	0.737	0.449	0.592	0.23	0.168	0.256	0.285	0.248	0.161	0.109

Cell Line	relative viability ([1]; first compound 0.01 µM)	relative viability ([1]; first compound 0.03162 µM)	relative viability ([1]; first compound 0.1 µM)	relative viability ([1]; first compound 0.3162 µM)	relative viability ([1]; first compound 1 µM)	relative viability ([2]; first compound 0.01 µM)	relative viability ([2]; first compound 0.03162 µM)	relative viability ([2]; first compound 0.1 µM)	relative viability ([2]; first compound 0.3162 µM)	relative viability ([2]; first compound 1 µM)	relative viability ([3]; first compound 0.01 µM)	relative viability ([3]; first compound 0.03162 µM)	relative viability ([3]; first compound 0.1 µM)	relative viability ([3]; first compound 0.3162 µM)	relative viability ([3]; first compound 1 µM)	relative viability ([4]; first compound 0.01 µM)	relative viability ([4]; first compound 0.03162 µM)	relative viability ([4]; first compound 0.1 µM)	relative viability ([4]; first compound 0.3162 µM)	relative viability ([4]; first compound 1 µM)
NCI-H1975	0.417	0.313	0.193	0.192	0.18	0.967	0.91	0.802	0.279	0.247	0.369	0.309	0.233	0.172	0.174	0.311	0.301	0.264	0.206	0.167
NCI-H1437	0.524	0.527	0.381	0.247	0.207	1.23	1.09	0.921	0.344	0.213	0.315	0.299	0.301	0.206	0.203	0.324	0.308	0.276	0.23	0.224
NCI-H2009	0.249	0.248	0.205	0.14	0.141	1.11	1.14	1.04	0.553	0.323	0.508	0.455	0.486	0.294	0.228	1.08	1.06	1.03	0.722	0.263
NCI-H1651	0.809	0.715	0.735	0.582	0.462	1.08	0.879	0.622	0.52	0.282	0.323	0.318	0.329	0.261	0.232	0.645	0.585	0.477	0.388	0.367
NCI-H1666	0.887	0.877	0.877	0.797	0.793	0.878	0.819	0.731	0.561	0.417	0.619	0.553	0.584	0.542	0.488	0.917	0.878	0.895	0.751	0.716
NCI-H1734	0.747	0.559	0.531	0.312	0.242	1.04	0.742	0.472	0.316	0.173	0.417	0.288	0.264	0.176	0.194	0.45	0.375	0.41	0.385	0.323
EPLC-272H	0.278	0.257	0.227	0.189	0.131	1.1	0.842	0.556	0.378	0.35	0.326	0.214	0.216	0.198	0.212	0.361	0.363	0.369	0.321	0.331
NCI-H2023	0.454	0.43	0.187	0.152	0.122	0.951	0.871	0.598	0.249	0.181	0.463	0.326	0.293	0.138	0.13	0.229	0.205	0.16	0.0973	0.122
BEN	0.87	0.626	0.569	0.467	0.463	0.0642	0.064	0.0538	0.0837	0.0613	0.293	0.26	0.292	0.242	0.228	0.815	0.589	0.514	0.421	0.449
COR-L 105	0.416	0.412	0.44	0.404	0.416	0.914	0.961	0.596	0.358	0.39	0.506	0.529	0.35	0.278	0.275	1.3	1.16	1.29	0.664	0.485
HCC-15	0.373	0.337	0.271	0.167	0.186	0.782	0.591	0.561	0.38	0.293	0.547	0.459	0.425	0.286	0.232	0.241	0.236	0.209	0.238	0.241
NCI-H2170	0.957	0.864	0.614	0.222	0.159	0.59	0.517	0.295	0.189	0.191	0.438	0.437	0.471	0.407	0.341	0.287	0.288	0.255	0.24	0.248
PC-3 [JPC-3]	0.749	0.757	0.565	0.462	0.445	0.83	0.847	0.775	0.575	0.421	0.464	0.479	0.47	0.464	0.456	1.17	1.09	0.877	0.622	0.454
NCI-H1993	0.493	0.443	0.517	0.449	0.413	0.785	0.681	0.649	0.665	0.56	0.509	0.469	0.529	0.49	0.576	0.519	0.542	0.459	0.434	0.473
NCI-H1915	0.286	0.254	0.259	0.174	0.146	0.853	0.769	0.81	0.757	0.509	0.373	0.348	0.356	0.364	0.302	0.52	0.5	0.507	0.419	0.372
